The source of these data is patent US7855290B2, “Pyridine derivatives and pyrimidine derivatives (3)” (Eisai R&D Management Co., Ltd., priority 2005, dated 2010).

In assay [1] the test system is Human umbilical vein endothelial cells (HUVECs). Nature of the assay: Inhibitory activity against the growth of vascular endothelial cells stimulated with hepatocyte growth factor. The format is cell-based. Particulars: HUVEC, HGF stimulated, third day, Cell Counting Kit-8, read-out: IC50 (cell proliferation activity). On the procedure: Human umbilical vein endothelial cells (HUVECs) were isolated according to the reported method (Shin Seikagaku Jikken Koza, “Cell culturing techniques”, p 197-202), and then cultured in a 5% CO2 incubator (37° C.) using EGM-2 medium (purchased from Clonetics) until the cells reached confluency.
HUVECs were suspended in a serum-free medium for endothelial cell culture (SFM, purchased from GIBCO RBL) containing 2% FBS. The cell suspension (2×10^4 cells/ml) was put in a cell culturing 96-well plate (purchased from NUNC, Production No. 167008) at 0.1 ml/well, and then cultured in a 5% CO2 incubator (37° C.) overnight. After the culture, each well was supplied with 50 μl of the test substance diluted with a 2% FBS-containing serum-free medium for endothelial cell culture and 50 μl of HGF (purchased from R&D) diluted at a concentration of 120 ng/ml with a 2% FBS-containing serum-free medium for endothelial cell culture, followed by culturing in a 5% CO2 incubator (37° C.). On the third day after the addition of the test substance, each well was supplied with 10 μl of Cell Counting Kit-8 (purchased from DOJINDO, Production No. 343-07623), and then the plate was incubated in a 5% CO2 incubator (37° C.) for about 2 hours. After the incubation, using a Plate Reader MTP-500 (Corona Electric), the absorbance of each well was determined at a measurement wavelength of 450 nm and a reference wavelength of 660 nm. While defining the absorbance of a well supplied with HGF and no test substance as 100% cell proliferation activity and the absorbance of the well supplied with no test substance and no HGF as 0% cell proliferation activity, the cell proliferation activity ratio (%) was calculated for each cell.
Background: Formazan colour is commonly taken as a measure of viable cells.

Assay [2] relates to Human gastric cancer cells (MKN-45). The experiment in a line: Inhibitory activity against the proliferation of human gastric cancer cells (MKN-45). The format is cell-based. Particulars: 72 h, MKN-45, 1% FBS RPMI1640, 3 days, Cell Counting Kit-8. On the procedure:
Human gastric cancer cells (MKN-45) were suspended in a 1% FBS-containing RPMI1640 medium (purchased from Sigma). The cell suspension (1×10^4 cells/ml) was added in a 96-well plate for cell culture (purchased from NUNC, Production No. 167008) at 0.1 ml/well, and then cultured in a 5% CO2 incubator (37° C.) overnight. After the culture, each well was supplied with 0.1 ml of a test substance diluted with a 1% FBS-containing RPMI1640 medium, followed by culturing in a 5% CO2 incubator (37° C.) for 3 days. After the culture, each well was supplied with 10 μl of Cell Counting Kit-8 (purchased from DOJINDO, Production No. 343-07623), followed by incubation in a 5% CO2 incubator (37° C.) for about 1.5 hrs. After the incubation, using the Plate Reader MTP-500 (Corona Electric), the absorbance of each well was determined at a measurement wavelength of 450 nm and a reference wavelength of 660 nm.

Regarding `CN1CCN(C2CCN(C(=O)Nc3cc(Oc4ccc(NC(=O)C5(C(=O)Nc6ccc(F)cc6)CC5)c(F)c4)ccn3)CC2)CC1` [Example 15, N-(2-Fluoro-4-{[2-({[4-(4-methylpiperazin-1-yl)piperidin-1-yl]carbonyl}amino)pyridin-4-yl]oxy}phenyl)-N′-(4-fluorophenyl)cyclopropane-1,1-dicarboxamide], the IC50 in assay [1] turned out to be 15 nM; in assay [2], 17 nM.
